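1) Cells in 96-well plates. 2) Compound, 48 h, 5 concentrations. 3) Linear interpolation between surrounding doses. 4) Unreached endpoint = highest concentration. Abbreviation: GI50, concentration required for 50% inhibition of growth. TGI: total growth inhibition.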
Key:
Experiment in all cases: growth of human tumour cells (NCI), 48 h
[1] = system: SK-MEL-5 melanoma
[2] = system: SK-MEL-2 melanoma
[3] = system: U251 CNS
[4] = system: OVCAR-4 ovarian
[5] = system: HT29 colon
[6] = system: MOLT-4 leukemia
[7] = system: HL-60(TB) leukemia
[8] = system: OVCAR-8 ovarian
[9] = system: CCRF-CEM leukemia
[10] = system: HS 578T breast
[11] = system: OVCAR-3 ovarian
[12] = system: RPMI-8226 leukemia
[13] = system: NCI-H226 lung
[14] = system: TK-10 renal
[15] = system: COLO 205 colon
[16] = system: DU-145 prostate
[17] = system: MALME-3M melanoma
[18] = system: SF-539 CNS
[19] = system: HOP-92 NSCLC
[20] = system: NCI-H23 lung
[21] = system: UO-31 renal
[22] = system: T-47D breast
[23] = system: HOP-62 NSCLC
[24] = system: EKVX NSCLC
[25] = system: BT-549 breast
[26] = system: SW-620 colon
[27] = system: MDA-MB-435
[28] = system: NCI-H460 lung
[29] = system: MCF7 breast
[30] = system: NCI-H522 lung
[31] = system: RXF 393 renal
[32] = system: LOX IMVI melanoma
[33] = system: SF-295 CNS
[34] = system: A549 NSCLC
[35] = system: SNB-19 CNS
[36] = system: IGROV1 ovarian
[37] = system: 786-0 renal
[38] = system: ACHN renal
[39] = system: M14 melanoma
[40] = system: KM12 colon
[41] = system: A498 renal
[42] = system: UACC-257 melanoma
[43] = system: NCI/ADR-RES ovarian
[44] = system: HCC-2998 colon
[45] = system: SNB-75 CNS
[46] = system: UACC-62 melanoma
[47] = system: SK-MEL-28 melanoma
[48] = system: SN12C renal
[49] = system: K-562 leukemia
[50] = system: PC-3 prostate
[51] = system: MDA-MB-231 breast
[52] = system: HCT-15 colon
[53] = system: SK-OV-3 ovarian
[54] = system: OVCAR-5 ovarian
[55] = system: CAKI-1 renal
[56] = system: HCT-116 colon
[57] = system: SF-268 CNS
[58] = system: SR leukemia

CCOC(=O)CC1C(COC(=O)NC)OC(n2cnc3c(NC(=O)Nc4ccccc4)ncnc32)C1O[Si](C)(C)C(C)(C)C (centres undefined) was tested, and the GI50 [1] was 5.7 µM, the TGI [1] was 18.6 µM and the GI50 [2] was 13.2 µM. It also gave a TGI [2] of 57.3 µM, a GI50 [3] of 7.57 µM and a TGI [3] of 32.3 µM. For the same compound, the GI50 [4] was 10.7 µM, the TGI [4] was over 100 µM and the GI50 [5] was 3.97 µM. The TGI [5] was 17.7 µM, the GI50 [6] was 1.99 µM and the TGI [6] was 5.74 µM. The GI50 [7] was 1.39 µM, the TGI [7] was 3.78 µM and the GI50 [8] was 10.3 µM. It also gave a TGI [8] of over 100 µM, a GI50 [9] of 3.23 µM and a TGI [9] of over 100 µM. The GI50 [10] was 3.39 µM, the TGI [10] was 14.7 µM and the GI50 [11] was 2.42 µM. The TGI [11] was 5.6 µM, the GI50 [12] was 2.16 µM and the TGI [12] was 5.48 µM. For the same compound, the GI50 [13] was 11.8 µM, the TGI [13] was 36.6 µM and the GI50 [14] was 10.7 µM. It also gave a TGI [14] of 50 µM, a GI50 [15] of 7.7 µM and a TGI [15] of 20.2 µM. The GI50 [16] was 5.21 µM, the TGI [16] was 28.2 µM and the GI50 [17] was 3.34 µM. The TGI [17] was 33.1 µM, the GI50 [18] was 11.5 µM and the TGI [18] was 26.4 µM. It also gave a GI50 [19] of 6.52 µM, a TGI [19] of 28.9 µM and a GI50 [20] of 12.9 µM. For the same compound, the TGI [20] was 53 µM, the GI50 [21] was 5.7 µM and the TGI [21] was 55.4 µM. The GI50 [22] was 4.95 µM, the TGI [22] was 84.7 µM and the GI50 [23] was 14.7 µM. The TGI [23] was 77.7 µM, the GI50 [24] was 3.39 µM and the TGI [24] was over 100 µM. The GI50 [25] was 2.07 µM, the TGI [25] was 6.71 µM and the GI50 [26] was 4.59 µM. The TGI [26] was 78.1 µM, the GI50 [27] was 3.26 µM and the TGI [27] was over 100 µM. It also gave a GI50 [28] of 4.45 µM, a TGI [28] of 17.2 µM and a GI50 [29] of 3.37 µM. For the same compound, the TGI [29] was 17.1 µM, the GI50 [30] was 9.58 µM and the TGI [30] was over 100 µM. The GI50 [31] was 2.94 µM, the TGI [31] was 12.4 µM and the GI50 [32] was 7.78 µM. It also gave a TGI [32] of 23 µM, a GI50 [33] of 2.83 µM and a TGI [33] of 15.1 µM. The GI50 [34] was 6.93 µM, the TGI [34] was over 100 µM and the GI50 [35] was 49.2 µM. The TGI [35] was over 100 µM, the GI50 [36] was 13.7 µM and the TGI [36] was over 100 µM. The GI50 [37] was 7.94 µM, the TGI [37] was 21.5 µM and the GI50 [38] was 5.92 µM. The TGI [38] was over 100 µM, the GI50 [39] was 6.37 µM and the TGI [39] was 95.7 µM. For the same compound, the GI50 [40] was 3.21 µM, the TGI [40] was 10.7 µM and the GI50 [41] was 4.65 µM. It also gave a TGI [41] of 21.4 µM, a GI50 [42] of 20.8 µM and a TGI [42] of over 100 µM. For the same compound, the GI50 [43] was 9.18 µM, the TGI [43] was 30.6 µM and the GI50 [44] was 8.76 µM. It also gave a TGI [44] of 28.8 µM, a GI50 [45] of 10.3 µM and a TGI [45] of 50.2 µM. The GI50 [46] was 15.8 µM, the TGI [46] was over 100 µM and the GI50 [47] was 7.77 µM. For the same compound, the TGI [47] was over 100 µM, the GI50 [48] was 2.17 µM and the TGI [48] was 5.19 µM. For the same compound, the GI50 [49] was 3.09 µM, the TGI [49] was over 100 µM and the GI50 [50] was 2.87 µM. The TGI [50] was 25.4 µM, the GI50 [51] was 17.5 µM and the TGI [51] was over 100 µM. The GI50 [52] was 11.7 µM, the TGI [52] was over 100 µM and the GI50 [53] was 40.4 µM. For the same compound, the TGI [53] was over 100 µM, the GI50 [54] was 12.8 µM and the TGI [54] was 39.7 µM. It also gave a GI50 [55] of 3.72 µM, a TGI [55] of 38.8 µM and a GI50 [56] of 2.33 µM. The TGI [56] was 5.38 µM, the GI50 [57] was 5.06 µM and the TGI [57] was 33.8 µM.
CN(Cc1cc(Cl)cc(Cl)c1)CC(C(=O)c1ccccc1)c1ccccc1 (centres undefined) showed a TGI [1] of 29.9 µM, a TGI [2] of 29.7 µM and a TGI [3] of 4.17 µM. For the same compound, the TGI [4] was 12.4 µM, the TGI [5] was 7.91 µM and the TGI [7] was 47.4 µM. For the same compound, the TGI [8] was 21.2 µM, the TGI [10] was over 57.7 µM and the TGI [11] was 3.65 µM. For the same compound, the TGI [12] was over 100 µM, the TGI [13] was 22.4 µM and the TGI [14] was 23 µM. It also gave a TGI [15] of 16.3 µM, a TGI [16] of 20.9 µM and a TGI [17] of 24 µM. The TGI [18] was 23.2 µM, the TGI [19] was over 91.3 µM and the TGI [20] was 7.06 µM. For the same compound, the TGI [21] was 19.9 µM, the TGI [22] was 8.68 µM and the TGI [23] was 71.3 µM. It also gave a TGI [24] of 57.6 µM, a TGI [25] of 17.6 µM and a TGI [26] of 2.92 µM. For the same compound, the TGI [27] was 16 µM, the TGI [28] was over 100 µM and the TGI [29] was over 44.1 µM. It also gave a TGI [30] of 4.39 µM, a TGI [31] of over 25.6 µM and a TGI [32] of 5.91 µM. For the same compound, the TGI [33] was over 100 µM, the TGI [34] was over 100 µM and the TGI [35] was over 53 µM. The TGI [36] was over 58.3 µM, the TGI [37] was 10.4 µM and the TGI [38] was 2.16 µM. The TGI [39] was 13.5 µM, the TGI [40] was 17.5 µM and the TGI [41] was 64.8 µM. It also gave a TGI [42] of 14.9 µM, a TGI [43] of 5.45 µM and a TGI [58] of over 100 µM. For the same compound, the TGI [45] was 31.3 µM, the TGI [46] was 14.3 µM and the TGI [47] was 9.8 µM. It also gave a TGI [48] of 16.3 µM, a TGI [49] of over 100 µM and a TGI [50] of 29.3 µM. For the same compound, the TGI [51] was 23.5 µM, the TGI [52] was 1.84 µM and the TGI [53] was over 100 µM. It also gave a TGI [54] of 19.1 µM, a TGI [55] of 9.07 µM and a TGI [56] of 2.36 µM. For the same compound, the TGI [57] was 68.6 µM.
